Source: patent US20140127705A1, “METHOD FOR SCREENING SUBSTANCES HAVING WEIGHT-REGULATING ACTION” (priority 2011, published 2014)

Tested on: 3T3-L1 cells
Experiment: Induction of adipocyte differentiation in 3T3-L1 cells, Oil Red O staining
Format: cell-based
Conditions: 10 μM LS-102 added at induction of differentiation (IBMX, dexamethasone, insulin) and again at the medium change, DMSO control, microscope (FIG. 5)
Procedure: 3T3-L1 cells were cultured for 3 days after reaching confluence in DMEM (10% FBS, High Glucose). Differentiation was induced by adding 500 μM IBMX, 1 μM dexamethasone and 5 μg/ml of insulin. 10 μM LS-102 (synoviolin ubiquitination activity inhibitor) or DMSO were added at the same time. After culturing for 3 days, the medium was replaced with medium containing 4 μg/ml of insulin followed by the addition of 10 μM LS-102 or DMSO. After again culturing for 3 days, the medium was replaced with DMEM (10% FES, High Glucose) followed by additionally culturing for 3 days. With respect to siRNA, 200 pmol of siRNA Syno770 was introduced using Lipofectamine 2000 two days prior to inducing differentiation.
After washing the 3T3-L1 cells with PBS(−), the cells were fixed with 10% formalin. The cells were then washed with PBS(−) and transferred to 60% isopropanol. The cells were stained for 20 minutes with 18 mg/ml of Oil Red O/Isopropanol and then washed with 60% isopropanol and PBS(−) followed by observing with a microscope.

## CCNCCN(CC)c1nc(Nc2ccc3ncoc3c2)nc(N[C@@H](C)C2CCCCC2)n1 [LI102]
  number of differentiated adipocytes in comparison with the control: the number of differentiated adipocytes was lower in comparison with the control
